This is an account of results in patent publication US12304912B2, “Fused bicyclic RAF inhibitors and methods for use thereof” (Jazz Pharmaceuticals Ireland Limited, priority 2020, dated 2025).

Molecules are shown by their SMILES.

The nature of series [1]: Plasma protein binding assay, human plasma (hPPB). The class given is in vitro ADME. The conditions noted are these: 5 μM, equilibrium dialysis 4 hours at 37° C. The gist of the method:
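Equilibrium dialysis of 5 μM compound in previously frozen human or mouse plasma against phosphate buffer, 4 h at 37 °C. Both chambers quantified by LC-MS/MS; % free = (1−((PC−PF)/PC))×100.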

Series [2] concerns BRAF monomers in A375 cells. Put plainly: A375 AlphaLISA SureFire pERK1/2 cellular assay (monomer). The class given is cell-based. To be noted: Homo sapiens, A-375; A375 cells, 1 hr; read-out: pERK A375 (1 hr) pIC50 (converted). The method in brief:
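BRAF^V600E A375 melanoma cells seeded at 30,000/well in DMEM with 10% FBS, dosed without medium exchange in a 10-point series from 10 μM at 1/2-log steps, 1 h at 37 °C. Phospho-ERK1/2 (Thr202/Tyr204) measured in lysates by AlphaLISA SureFire; absolute IC50 relative to DMSO control.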

The subject of series [3] is RAF dimers in HCT-116 cells. Put plainly: HCT-116 AlphaLISA SureFire pERK1/2 cellular assay (dimer). The class given is cell-based. The conditions noted are these: Homo sapiens, HCT-116; HCT116 cells, dimer, 1 hr; read-out: pERK HCT116 dimer (1 hr) plC50 (converted). The method in brief: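 HCT-116 (KRAS G13D) cells, 30,000/well, pretreated 1 h with 1 μM Encorafenib to induce RAF dimers, washed, then dosed 1 h at 37° C with compound (10-point, top 10 μM, 1/2 log steps) in growth medium. pERK1/2 (T202/Y204) measured by AlphaLISA SureFire; absolute IC50 versus DMSO control.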

`CC(C)(C)CCc1c[nH]c(C2COc3ccc(Oc4ccnc5c4CCC(=O)N5)cc3C2)n1` (stereo not drawn) [Compound 115, 5-[3-[4-(3,3-dimethylbutyl)-1H-imidazol-2-yl]chroman-6-yl]oxy-3,4-dihydro-1H-1,8-naphthyridin-2-one]: in series [1], the “hPPB (% free)” value was 0.3 % free. In addition, the IC50 in series [2] was 0.0138 µM; in series [3] it was 0.105 µM.

In the case of `CC(C)CCc1c[nH]c(C2COc3ccc(Oc4ccnc5c4CCC(=O)N5)cc3C2)n1` (stereo not drawn) [Compound 116], the “hPPB (% free)” value in series [1] is reported as 0.13 % free. Besides, the results for the IC50 in series [2] and in series [3] were 0.0468 µM and 0.0871 µM, respectively.

On to `Cc1cc(-c2c[nH]c(C3COc4ccc(Oc5ccnc6c5CCC(=O)N6)cc4C3)n2)ccn1` (stereo not drawn) [Compound 117, 5-[3-[4-(2-methyl-4-pyridyl)-1H-imidazol-2-yl]chroman-6-yl]oxy-3,4-dihydro-1H-1,8-naphthyridin-2-one], for which the “hPPB (% free)” value in series [1] amounted to 2.6 % free. Also, the IC50 is 0.724 µM in series [2] and 0.11 µM in series [3].

For `CCc1cc(-c2c[nH]c(C3COc4ccc(Oc5ccnc6c5CCC(=O)N6)cc4C3)n2)ccn1` (stereo not drawn) [Compound 118, 5-[3-[4-(2-ethyl-4-pyridyl)-1H-imidazol-2-yl]chroman-6-yl]oxy-3,4-dihydro-1H-1,8-naphthyridin-2-one], the “hPPB (% free)” value in series [1] was found to be 1.3 % free. Also, the IC50 in series [2] is 0.631 µM; in series [3] it was 0.148 µM.

As to `COc1csc(-c2c[nH]c(C3COc4ccc(Oc5ccnc6c5CCC(=O)N6)cc4C3)n2)c1` (stereo not drawn) [Compound 122, 5-[3-[5-(4-methoxy-2-thienyl)-1H-imidazol-2-yl]chroman-6-yl]oxy-3,4-dihydro-1H-1,8-naphthyridin-2-one], in series [1], the “hPPB (% free)” value came to 0.23 % free. Besides, the results for the IC50 in series [2] and in series [3] were 0.288 µM and 0.162 µM, respectively.

On to `COc1ccsc1-c1c[nH]c(C2COc3ccc(Oc4ccnc5c4CCC(=O)N5)cc3C2)n1` (stereo not drawn) [Compound 123], for which, in series [1], the “hPPB (% free)” value is 0.23 % free. For the same molecule, the IC50 in series [2] was 0.0282 µM; in series [3], 0.0589 µM.

`CCn1nc(C)cc1-c1c[nH]c(C2COc3ccc(Oc4ccnc5c4CCC(=O)N5)cc3C2)n1` (stereo not drawn) [Compound 124, 5-[3-[4-(2-ethyl-5-methyl-pyrazol-3-yl)-1H-imidazol-2-yl]chroman-6-yl]oxy-3,4-dihydro-1H-1,8-naphthyridin-2-one]: the “hPPB (% free)” value in series [1] stood at 2.7 % free. The IC50 in series [2] is 1.07 µM; in series [3] it was 0.269 µM.

Turning to `Cc1cc(-c2c[nH]c(C3COc4ccc(Oc5ccnc6c5CCC(=O)N6)cc4C3)n2)n(CC(F)(F)F)n1` (stereo not drawn) [Compound 126, 5-[3-[4-[5-methyl-2-(2,2,2-trifluoroethyl)pyrazol-3-yl]-1H-imidazol-2-yl]chroman-6-yl]oxy-3,4-dihydro-1H-1,8-naphthyridin-2-one], the “hPPB (% free)” value in series [1] came out at 1.0 % free. In addition, the IC50 was 0.794 µM in series [2] and 0.245 µM in series [3].

Consider `O=C1CCc2c(Oc3ccc4c(c3)CC(c3nc(-c5ccc(C(F)(F)F)nc5)c[nH]3)CO4)ccnc2N1` (stereo not drawn) [Compound 127, 5-[3-[4-[6-(trifluoromethyl)-3-pyridyl]-1H-imidazol-2-yl]chroman-6-yl]oxy-3,4-dihydro-1H-1,8-naphthyridin-2-one], for which the “hPPB (% free)” value in series [1] turned out to be 0.6 % free. Moreover, the IC50 is 0.851 µM in series [2] and 0.158 µM in series [3].

As for `O=C1CCc2c(Oc3ccc4c(c3)CC(c3nc(-c5cccnc5C(F)(F)F)c[nH]3)CO4)ccnc2N1` (stereo not drawn) [Compound 128, 5-[3-[4-[2-(trifluoromethyl)-3-pyridyl]-1H-imidazol-2-yl]chroman-6-yl]oxy-3,4-dihydro-1H-1,8-naphthyridin-2-one], in series [1], the “hPPB (% free)” value came to 0.9 % free. The IC50 in series [2] is 0.832 µM; in series [3], 0.263 µM.

For `Cn1ncc2ccc(-c3c[nH]c(C4COc5ccc(Oc6ccnc7c6CCC(=O)N7)cc5C4)n3)cc21` (stereo not drawn) [Compound 130, 5-[3-[4-(1-methylindazol-6-yl)-1H-imidazol-2-yl]chroman-6-yl]oxy-3,4-dihydro-1H-1,8-naphthyridin-2-one], the “hPPB (% free)” value in series [1] turned out to be 0.1 % free. The IC50 in series [2] was 1 µM; in series [3] it was 0.166 µM.
